How the values were obtained:
Assay in all cases: Kinase assay, binding constants (Kd), kinase-tagged T7 phage, qPCR
FGFR1 = FGFR1 (Homo sapiens (Human), UniProt P11362)
Summary of the method: (§1)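 Competition binding: T7 phage-tagged kinase + biotin-ligand beads + compound (11 pts, 3-fold, 0.9% DMSO). Elution 30 min RT with free ligand; qPCR quantitation. Kd via Hill fit, slope −1.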

FGFR2 = FGFR2 (Homo sapiens (Human), UniProt P21802)
Summary of the method: as §1

FGFR3 = FGFR3 (Homo sapiens (Human), UniProt P22607)
Summary of the method: as §1

FGFR3 (V555M) = FGFR3 (V555M) (Homo sapiens (Human), UniProt P22607, V555M); conditions: V555M mutant
Summary of the method: as §1

FGFR4 = FGFR4 (Homo sapiens (Human), UniProt P22455)
Summary of the method: as §1

Sequence of FGFR4 (P22455 22-802): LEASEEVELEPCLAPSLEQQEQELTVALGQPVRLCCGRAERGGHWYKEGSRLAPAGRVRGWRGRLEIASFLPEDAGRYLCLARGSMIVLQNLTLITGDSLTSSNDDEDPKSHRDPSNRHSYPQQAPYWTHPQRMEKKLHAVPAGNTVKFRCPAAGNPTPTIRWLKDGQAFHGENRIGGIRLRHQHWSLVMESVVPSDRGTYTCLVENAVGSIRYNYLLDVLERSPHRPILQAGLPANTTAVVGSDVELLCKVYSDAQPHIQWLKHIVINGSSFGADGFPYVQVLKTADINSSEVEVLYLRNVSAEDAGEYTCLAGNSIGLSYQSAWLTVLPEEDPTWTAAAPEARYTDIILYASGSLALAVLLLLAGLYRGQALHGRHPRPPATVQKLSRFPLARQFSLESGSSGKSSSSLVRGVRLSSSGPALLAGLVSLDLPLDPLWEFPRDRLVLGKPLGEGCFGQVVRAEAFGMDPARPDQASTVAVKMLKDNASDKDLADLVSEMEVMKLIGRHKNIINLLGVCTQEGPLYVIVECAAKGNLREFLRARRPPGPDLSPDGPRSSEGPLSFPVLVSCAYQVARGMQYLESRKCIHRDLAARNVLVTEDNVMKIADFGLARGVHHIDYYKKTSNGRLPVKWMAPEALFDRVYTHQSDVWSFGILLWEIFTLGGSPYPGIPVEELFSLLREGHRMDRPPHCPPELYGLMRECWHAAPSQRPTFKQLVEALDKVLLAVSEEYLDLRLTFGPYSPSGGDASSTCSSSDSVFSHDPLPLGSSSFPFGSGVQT
Sequence of FGFR2 (P21802 22-821): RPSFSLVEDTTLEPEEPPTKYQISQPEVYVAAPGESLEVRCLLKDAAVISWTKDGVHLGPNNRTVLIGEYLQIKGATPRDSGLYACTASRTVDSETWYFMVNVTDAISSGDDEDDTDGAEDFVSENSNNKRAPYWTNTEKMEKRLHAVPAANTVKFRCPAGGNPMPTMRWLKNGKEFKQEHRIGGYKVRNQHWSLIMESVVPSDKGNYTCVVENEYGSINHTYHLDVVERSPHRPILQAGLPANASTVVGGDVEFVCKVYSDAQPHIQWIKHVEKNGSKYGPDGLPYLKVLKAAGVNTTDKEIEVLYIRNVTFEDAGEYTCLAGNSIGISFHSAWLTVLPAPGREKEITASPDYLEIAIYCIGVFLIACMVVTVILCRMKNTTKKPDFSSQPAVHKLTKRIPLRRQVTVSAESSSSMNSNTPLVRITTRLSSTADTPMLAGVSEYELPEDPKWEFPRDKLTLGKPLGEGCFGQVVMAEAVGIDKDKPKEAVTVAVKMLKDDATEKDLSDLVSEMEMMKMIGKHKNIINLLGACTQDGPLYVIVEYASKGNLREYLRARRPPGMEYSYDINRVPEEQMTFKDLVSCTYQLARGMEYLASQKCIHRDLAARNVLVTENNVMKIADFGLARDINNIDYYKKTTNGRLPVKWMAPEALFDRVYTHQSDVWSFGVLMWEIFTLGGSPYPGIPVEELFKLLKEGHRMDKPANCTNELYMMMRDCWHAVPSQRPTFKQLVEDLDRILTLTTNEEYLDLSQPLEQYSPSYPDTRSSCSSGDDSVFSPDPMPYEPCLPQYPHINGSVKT
Sequence of FGFR3 (P22607 23-806): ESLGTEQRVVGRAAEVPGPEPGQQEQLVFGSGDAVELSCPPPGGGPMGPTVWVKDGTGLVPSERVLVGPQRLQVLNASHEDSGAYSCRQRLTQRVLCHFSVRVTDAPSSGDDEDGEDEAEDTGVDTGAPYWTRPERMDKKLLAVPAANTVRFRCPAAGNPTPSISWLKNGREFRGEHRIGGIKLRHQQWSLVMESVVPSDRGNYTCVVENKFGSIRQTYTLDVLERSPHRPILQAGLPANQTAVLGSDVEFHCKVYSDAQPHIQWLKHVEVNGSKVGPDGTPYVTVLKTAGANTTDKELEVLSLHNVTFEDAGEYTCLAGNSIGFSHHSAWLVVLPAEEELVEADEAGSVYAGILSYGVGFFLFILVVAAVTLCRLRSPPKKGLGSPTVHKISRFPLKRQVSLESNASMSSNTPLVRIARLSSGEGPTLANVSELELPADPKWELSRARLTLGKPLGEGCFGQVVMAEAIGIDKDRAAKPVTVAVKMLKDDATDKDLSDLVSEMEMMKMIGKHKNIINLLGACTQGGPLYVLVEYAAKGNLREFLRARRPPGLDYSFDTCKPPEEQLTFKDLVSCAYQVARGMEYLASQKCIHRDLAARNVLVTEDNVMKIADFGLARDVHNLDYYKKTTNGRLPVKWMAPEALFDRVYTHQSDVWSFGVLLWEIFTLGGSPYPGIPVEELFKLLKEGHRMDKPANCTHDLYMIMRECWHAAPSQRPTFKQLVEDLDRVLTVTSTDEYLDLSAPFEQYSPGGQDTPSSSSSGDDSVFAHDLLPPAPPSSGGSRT
Sequence of FGFR1 (P11362 22-822): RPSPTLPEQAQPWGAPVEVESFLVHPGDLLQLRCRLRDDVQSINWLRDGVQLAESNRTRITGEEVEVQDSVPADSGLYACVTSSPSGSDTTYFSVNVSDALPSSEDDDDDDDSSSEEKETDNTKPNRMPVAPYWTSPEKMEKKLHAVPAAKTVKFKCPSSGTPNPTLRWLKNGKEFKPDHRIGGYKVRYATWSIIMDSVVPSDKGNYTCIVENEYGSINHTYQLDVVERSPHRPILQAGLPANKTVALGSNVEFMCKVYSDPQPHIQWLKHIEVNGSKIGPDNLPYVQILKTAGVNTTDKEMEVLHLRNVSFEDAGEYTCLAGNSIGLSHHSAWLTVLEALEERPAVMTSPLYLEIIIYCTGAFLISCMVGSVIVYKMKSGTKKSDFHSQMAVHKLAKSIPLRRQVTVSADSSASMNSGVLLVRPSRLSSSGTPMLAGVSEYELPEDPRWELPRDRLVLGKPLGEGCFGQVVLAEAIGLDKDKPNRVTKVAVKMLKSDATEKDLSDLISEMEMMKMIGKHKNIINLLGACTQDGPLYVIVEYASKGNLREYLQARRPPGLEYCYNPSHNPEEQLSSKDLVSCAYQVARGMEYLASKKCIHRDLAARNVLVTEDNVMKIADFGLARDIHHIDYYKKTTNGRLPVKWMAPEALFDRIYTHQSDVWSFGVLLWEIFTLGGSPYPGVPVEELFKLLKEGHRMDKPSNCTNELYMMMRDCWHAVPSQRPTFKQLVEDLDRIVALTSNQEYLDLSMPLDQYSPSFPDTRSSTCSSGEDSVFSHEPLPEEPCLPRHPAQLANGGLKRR
Sequence of FGFR3 (V555M) (P22607 23-806 V555M): as the sequence (P22607 23-806) above, with V533M counted along it

Row | Structure (SMILES) | Kd (FGFR1) [nM] | Kd (FGFR2) [nM] | Kd (FGFR3) [nM] | Kd (FGFR3 (V555M)) [nM] | Kd (FGFR4) [nM]
1 | C[C@@H](Oc1ccc2[nH]nc(-c3ccc(N4CCN5CCC[C@@H]5C4)nc3)c2c1)c1c(Cl)cncc1Cl [Example 184, 3-[6-[(8aR)-3,4,6,7,8,8a-hexahydro-1H-pyrrolo[1,2-a]pyrazin-2-yl]-3-pyridyl]-5-[(1R)-1-(3,5-dichloro-4-pyridyl)ethoxy]-1H-indazole] | 1 to 20 | 1 to 20 | 1 to 20 | 1 to 20 | 1 to 20
2 | C[C@@H](Oc1ccc2[nH]nc(-c3cnc(N4CCCC4)c(C#N)c3)c2c1)c1c(Cl)cnc(F)c1Cl [Example 292, (R)-5-(5-(1-(3,5-dichloro-2-fluoropyridin-4-yl)ethoxy)-1H-indazol-3-yl)-2-(pyrrolidin-1-yl)nicotinonitrile] | > 300 | > 300 | > 300 | > 300 | 100 to 300
3 | COc1cc2[nH]nc(-c3cnc(N4CC(O)C4)c(C#N)c3)c2cc1O[C@H](C)c1c(Cl)cncc1Cl [Example 326, 5-[5-[(1R)-1-(3,5-dichloro-4-pyridyl)ethoxy]-6-methoxy-1H-indazol-3-yl]-2-(3-hydroxyazetidin-1-yl)pyridine-3-carbonitrile] | 20 to 100 | 20 to 100 | 1 to 20 | 1 to 20 | 1 to 20
4 | Cc1ncc(Cl)c([C@@H](C)Oc2ccc3[nH]nc(-c4cnc(N5CC(O)C5)c(C#N)c4)c3c2)c1Cl [Example 308, 5-[5-[(1R)-1-(3,5-dichloro-2-methyl-4-pyridyl)ethoxy]-1H-indazol-3-yl]-2-(3-hydroxyazetidin-1-yl)pyridine-3-carbonitrile] | > 300 | > 300 | 100 to 300 | 20 to 100 | 1 to 20
5 | COc1cc2[nH]nc(-c3ccc(N4CC5(COC5)C4)nc3)c2cc1O[C@H](C)c1c(C)cnnc1C [Example 202, 6-[5-[5-[(1R)-1-(3,5-dimethylpyridazin-4-yl)ethoxy]-6-methoxy-1H-indazol-3-yl]-2-pyridyl]-2-oxa-6-azaspiro[3.3]heptane] | 1 to 20 | 1 to 20 | 1 to 20 | 1 to 20 | 1 to 20
6 | C[C@@H](Oc1ccc2[nH]nc(-c3cnc(N4CC[C@@H](C(C)(C)O)C4)c(C#N)c3)c2c1)c1c(Cl)cncc1Cl [Example 294, 5-[5-[(1R)-1-(3,5-dichloro-4-pyridyl)ethoxy]-1H-indazol-3-yl]-2-[(3R)-3-(1-hydroxy-1-methyl-ethyl)pyrrolidin-1-yl]pyridine-3-carbonitrile] | > 300 | > 300 | 100 to 300 | 20 to 100 | 20 to 100
7 | Cc1cnnc(C)c1[C@@H](C)Oc1ccc2[nH]nc(-c3ccc(N4CCN5CCC[C@H]5C4)nc3)c2c1 [Example 174, 3-[6-[(8aS)-3,4,6,7,8,8a-hexahydro-1H-pyrrolo[1,2-a]pyrazin-2-yl]-3-pyridyl]-5-[(1R)-1-(3,5-dimethylpyridazin-4-yl)ethoxy]-1H-indazole] | 1 to 20 | 1 to 20 | 1 to 20 | 1 to 20 | 1 to 20
8 | COc1cc2[nH]nc(-c3cnc(N4CC[C@@H]4C)c(F)c3)c2cc1O[C@H](C)c1c(Cl)cncc1Cl [Example 271, 5-((R)-1-(3,5-dichloropyridin-4-yl)ethoxy)-3-(5-fluoro-6-((S)-2-methylazetidin-1-yl)pyridin-3-yl)-6-methoxy-1H-indazole] | 20 to 100 | 20 to 100 | 1 to 20 | 1 to 20 | 1 to 20
9 | C[C@@H](Oc1ccc2[nH]nc(-c3cnc(N4CC[C@H]4CO)c(C#N)c3)c2c1)c1c(Cl)cncc1Cl [Example 354, 5-(5-((R)-1-(3,5-dichloropyridin-4-yl)ethoxy)-1H-indazol-3-yl)-2-((S)-2-(hydroxymethyl)azetidin-1-yl)nicotinonitrile] | 20 to 100 | 20 to 100 | 1 to 20 | 1 to 20 | 1 to 20
10 | Cc1cnnc(C)c1[C@H](C)Oc1ccc2[nH]nc(-c3cnc(N4CC5(CCS(=O)(=O)C5)C4)nc3)c2c1 [Example 147, 2-[5-[5-[(1S)-1-(3,5-dimethylpyridazin-4-yl)ethoxy]-1H-indazol-3-yl]pyrimidin-2-yl]-6λ^6-thia-2-azaspiro[3.4]octane 6,6-dioxide] | > 300 | > 300 | > 300 | > 300 | > 300
11 | C[C@@H](Oc1cc2c(-c3cnc(N4CC5(CCS(=O)(=O)C5)C4)c(C#N)c3)n[nH]c2cc1F)c1c(Cl)cncc1Cl [Example 378, 5-[5-[(1R)-1-(3,5-dichloro-4-pyridyl)ethoxy]-6-fluoro-1H-indazol-3-yl]-2-(6,6-dioxo-6λ^6-thia-2-azaspiro[3.4]octan-2-yl)pyridine-3-carbonitrile] | 100 to 300 | 20 to 100 | 1 to 20 | 1 to 20 | 1 to 20
12 | Cc1cc(-c2n[nH]c3ccc(O[C@H](C)c4c(Cl)cncc4Cl)cc23)cnc1N1CC2(C1)CN(S(C)(=O)=O)C2 [Example 248, 5-[(1R)-1-(3,5-dichloro-4-pyridyl)ethoxy]-3-[5-methyl-6-(2-methylsulfonyl-2,6-diazaspiro[3.3]heptan-6-yl)-3-pyridyl]-1H-indazole] | 20 to 100 | 20 to 100 | 1 to 20 | 1 to 20 | 1 to 20
13 | C[C@@H](Oc1ccc2[nH]nc(-c3ccc(N4CCN5C[C@H](O)C[C@H]5C4)nc3)c2c1)c1c(Cl)cncc1Cl [Example 178, (7R,8aS)-2-[5-[5-[(1R)-1-(3,5-dichloro-4-pyridyl)ethoxy]-1H-indazol-3-yl]-2-pyridyl]-3,4,6,7,8,8a-hexahydro-1H-pyrrolo[1,2-a]pyrazin-7-ol] | 1 to 20 | 1 to 20 | 1 to 20 | 1 to 20 | 1 to 20
14 | Cc1cnnc(C)c1[C@@H](C)Oc1ccc2[nH]nc(-c3cnc(N4CC5(C4)CN(S(C)(=O)=O)C5)nc3)c2c1 [Example 156, 5-[(1R)-1-(3,5-dimethylpyridazin-4-yl)ethoxy]-3-[2-(2-methylsulfonyl-2,6-diazaspiro[3.3]heptan-6-yl)pyrimidin-5-yl]-1H-indazole] | 100 to 300 | 20 to 100 | 1 to 20 | 1 to 20 | 1 to 20
15 | COc1cc2[nH]nc(-c3cnc(N4CC[C@@H](O)C4)c(C#N)c3)c2cc1O[C@H](C)c1c(C)cnnc1C [Example 319, 5-(5-((R)-1-(3,5-dimethylpyridazin-4-yl)ethoxy)-6-methoxy-1H-indazol-3-yl)-2-((R)-3-hydroxypyrrolidin-1-yl)nicotinonitrile] | 20 to 100 | 20 to 100 | 1 to 20 | 1 to 20 | 1 to 20
16 | C[C@@H](Oc1cc2c(-c3cnc(N4CC(C)(C)C4)c(CN(C)C)c3)n[nH]c2cc1Cl)c1c(Cl)cncc1Cl [Example 371, (R)-1-(5-(6-chloro-5-(1-(3,5-dichloropyridin-4-yl)ethoxy)-1H-indazol-3-yl)-2-(3,3-dimethylazetidin-1-yl)pyridin-3-yl)-N,N-dimethylmethanamine] | > 300 | > 300 | > 300 | > 300 | 100 to 300
17 | Cc1cc2[nH]nc(-c3cnc(N4CC5(C4)CN(S(C)(=O)=O)C5)c(F)c3)c2cc1O[C@@H](C)c1c(Cl)cnnc1Cl [Example 254, (S)-5-(1-(3,5-dichloropyridazin-4-yl)ethoxy)-3-(5-fluoro-6-(6-(methylsulfonyl)-2,6-diazaspiro[3.3]heptan-2-yl)pyridin-3-yl)-6-methyl-1H-indazole] | > 300 | 100 to 300 | 20 to 100 | 1 to 20 | > 300
18 | Cc1ncc(Cl)c([C@@H](C)Oc2cc3c(-c4cnc(N5CC6(C5)CN(S(C)(=O)=O)C6)c(F)c4)n[nH]c3cc2Cl)c1Cl [Example 270, 6-chloro-5-[(1R)-1-(3,5-dichloro-2-methyl-4-pyridyl)ethoxy]-3-[5-fluoro-6-(2-methylsulfonyl-2,6-diazaspiro[3.3]heptan-6-yl)-3-pyridyl]-1H-indazole] | 20 to 100 | 20 to 100 | 1 to 20 | 1 to 20 | 1 to 20
19 | Cc1cc(-c2n[nH]c3ccc(O[C@H](C)c4c(Cl)cncc4Cl)cc23)cnc1N1CCOCC1 [Example 101, 4-[5-[5-[(1R)-1-(3,5-dichloro-4-pyridyl)ethoxy]-1H-indazol-3-yl]-3-methyl-2-pyridyl]morpholine] | 20 to 100 | 20 to 100 | 1 to 20 | 1 to 20 | 1 to 20
20 | C[C@@H](Oc1ccc2[nH]nc(-c3cnc(N4CC5(CCNC5)C4)nc3)c2c1)c1c(Cl)cncc1Cl [Example 158, 3-[2-(2,7-diazaspiro[3.4]octan-2-yl)pyrimidin-5-yl]-5-[(1R)-1-(3,5-dichloro-4-pyridyl)ethoxy]-1H-indazole] | 20 to 100 | 20 to 100 | 1 to 20 | 1 to 20 | 1 to 20
21 | CCOC(=O)N1CC2(C1)CN(c1ccc(-c3n[nH]c4ccc(O[C@H](C)c5c(Cl)cnc(F)c5Cl)cc34)cn1)C2 [Example 196, ethyl 6-[5-[5-[(1R)-1-(3,5-dichloro-2-fluoro-4-pyridyl)ethoxy]-1H-indazol-3-yl]-2-pyridyl]-2,6-diazaspiro[3.3]heptane-2-carboxylate] | 100 to 300 | 100 to 300 | 1 to 20 | 1 to 20 | 20 to 100

— US20240109865A1, “INDAZOLE COMPOUNDS AS KINASE INHIBITORS” (TYRA BIOSCIENCES, INC., priority 2020, published 2024)
